Data reported in US5677459A, “Methods for the preparation of modulators of acetylcholine receptors” (Sibia Neurosciences, Inc., priority 1995, dated 1997).
Where two headings read alike, the source gives them in different places.

Legend:
[1] = tested on: ^3 H-Dopamine release, rat striatal slices; test: Ligand-stimulated ^3 H-dopamine release from rat striatal slices; assay type: cell-based
Protocol: (§1) Measurement of ^3 H-dopamine release from rat striatal slices was performed according to the method of Sacaan et al. (J. Neurochem. 59:245 (1992)). Male Sprague-Dawley rats (250-300 g) were decapitated and the striata or olfactory tubercles dissected quickly on a cold glass surface. The tissue was chopped to a thickness of 300 μm with a McIlwain tissue chopper. After chopping again at right angles the tissue was dispersed and incubated for 10 min. at 37° C. in oxygenated Kreb's buffer. ^3 H-Dopamine (40 Ci/mmol, NEN- Dupont, Boston, Mass.) was added (50 nM) and the tissue was incubated for 30 min. in Kreb's buffer containing 10 μM pargyline and 0.5 mM ascorbic acid. Aliquots of the minced tissue were then transferred to chambers of a Brandel Superfusion system in which the tissue was supported on Whatman GF/B filter discs. The tissue was then superfused with buffer at a constant flow rate of 0.3 ml/min by means of a Brandel peristaltic pump. The perfusate was collected in plastic scintillation vials in 3-min fractions, and the radioactivity was estimated by scintillation spectrophotometry. The superfusate for the first 120 min was discarded. After two baseline fractions had been collected, the superfusion buffer was switched to fresh buffer with or without compound of interest. At the end of the experiment the filter and the tissue were removed, and the radiolabeled neurotransmitter content was estimated after extraction into scintillation fluid. The fractional efflux of radiolabeled neurotransmitter was estimated as the amount of radioactivity in the perfusate fraction relative to the total amount in the tissue.
(§2) Results of studies of the effects of an invention compound (as compared to the effect of nicotine) on the release of neurotransmitters from rat brain slices are presented in Table II. Results presented in Part A of the Table are expressed as the percent fractional release and results presented in Part B of the Table are expressed as a percentage, relative to nicotine response.

[2] = tested on: ^3 H-Norepinephrine release, rat hippocampus slices; test: Ligand-stimulated ^3 H-norepinephrine release from rat hippocampus slices; assay type: cell-based
Protocol: as §1
(§3) Following essentially the same procedure as set forth above, the amount of ^3 H-norepinephrine released from rat hippocampus, thalamus and prefrontal cortex slices superfused with buffer containing (or lacking) compounds of interest was also measured.
as §2

[3] = tested on: ^3 H-Norepinephrine release, rat thalamus slices; test: Ligand-stimulated ^3 H-norepinephrine release from rat thalamus slices; assay type: cell-based; settings: Nicotine concentration was 100 μM
Protocol: as §1, §3, §2

[4] = tested on: ^3 H-Norepinephrine release, rat prefrontal cortex slices; test: Ligand-stimulated ^3 H-norepinephrine release from rat prefrontal cortex slices; assay type: cell-based; settings: in vitro slices, 300 μM
Protocol: as §1, §3, §2

[5] = tested on: ^3 H-Dopamine release, rat olfactory tubercles; test: Ligand-stimulated ^3 H-dopamine release from rat olfactory tubercles; assay type: cell-based; settings: Nicotine concentration was 100 μM
Protocol: as §1, §2

[6] = tested on: rats with unilateral 6-hydroxydopamine lesions of the nigrostriatal dopamine pathway; assay type: in vivo, rat (male Sprague-Dawley); settings: rat, in vivo
Protocol: Selective lesions of the brain dopamine pathway using the neurotoxin 6-hydroxydopamine (6-OHDA) in rats can be used as an experimental approach to Parkinson's disease. Unilateral lesions of the nigrostriatal dopamine pathway induce a postural asymmetry which becomes manifested as rotation when the animals are activated by dopamine releasers or dopamine agonists. When amphetamine and other stimulant drugs that induce pre-synaptic release of dopamine from intact nerve terminals are administered, the rats rotate in a direction ipsilateral to the lesion. In contrast, when the rats are injected with post-synaptic dopamine receptor agonists, such as apomorphine, they turn in a contralateral direction, due to the development of supersensitive dopamine receptors in the lesioned side. Thus, the 6-OHDA model can be used to determine if a suspected dopaminergic agent is active, and to differentiate whether such action is pre- or post-synaptic.
The effects of invention compounds on rotational behavior in 6-hydroxydopamine denervated rats were evaluated using the procedure of Ungerstedt and Arbutknott, Brain Res. 24:485-493 (1970). Male Sprague-Dawley rats (Zivic Miller) weighing 170-200 gm were used in the 6-OHDA procedure. The ascending nigrostriatal dopamine pathway was lesioned by unilateral stereotaxic injection of 6-OHDA (8.0 μg) into one substantia nigra. All injections of 6-OHDA were preceded by desmethylimipramine (25 mg/kg i.p.) and pargyline (75 mg/kg i.p.) approximately 30 minutes prior to undergoing stereotaxic surgery for 6-OHDA infusion into the substantia nigra. After one week of recovery from surgery, the effectiveness of the lesions was verified by noting the response of the animals to apomorphine (0.2 mg/kg, s.c.). Only rats with a minimum rate of 80 contralateral turns per 30 minutes (a sign of more than 80-90% dopamine depletion after a 6-OHDA lesion) were used. Two weeks later, the selected rats were tested with invention and reference compounds using an automated rotometer system to record the number and direction of rotations. In order to distinguish spontaneous (non-specific)rotations from induced rotations (specific to the effect of the drug), each rat was used as its own control, employing the following procedure:
The rat was placed in the rotometer system for acclimatation for 15 minutes, the vehicle administered subcutaneously, the rat's rotations recorded for one hour, then test compound was administered s.c. and rotations again recorded for one hour. The number of ipsilateral rotations induced by vehicle was then compared to the number of ipsilateral rotations induced by test compound. Statistical analysis of the data was carried out using Student's t-test (paired).

rats = test: Locomotor activity assay; assay type: in vivo, rat (male Sprague-Dawley); settings: Rattus norvegicus, sc, 1 mg/kg salt, s.c.
Protocol: This assay can be used to assess the primary effect of a compound on general motor activity. A decrease in locomotor activity is indicative of a possible sedative effect on the animal, whereas an increase in locomotor activity is indicative of a stimulant effect on the animal.
Locomotor activity of rats (male Sprague-Dawley (Harlan) weighing 200-250 gm) was measured for 2 hrs in photocell cages immediately after administration of the invention compound. Prior to the test day, the animals were placed in the activity cages for 3 hrs to familiarize them with the experimental environment. On the test day, the animals were placed in the photocell cages and then injected with compound 1.5 hrs later.
The photocell cages were standard rodent cages (30 cm×20 cm×40 cm) with four infrared beams crossing the long axis. The animals were under no motivational constraints and were free to move around. Movements from one infrared beam to another (ambulation) were called "crossover"; successive interruptions of the same beam (vertical and other movements such as grooming) were called "general activity."

## CN1CCCC1c1cccnc1 (stereo not drawn) [Nicotine, nicotine, reference compound]
[1]; Nicotine concentration was 100 μM
  percent fractional release, ^3 H-Dopamine, Striatum: 1.84%
[1]; Rattus norvegicus, nicotine itself at 10 μM (reference), read-out: % of Nicotine Response, ^3 H-Dopamine, Striatum
  Emax at 10 µM: 100%
[2]; Rattus norvegicus, nicotine 300 μM = 100, read-out: % of Nicotine Response, ^3 H-Norepinephrine, Hippocampus
  Emax at 300 µM: 100%
[2]; in vitro slices, 300 μM
  percent fractional release, ^3 H-Norepinephrine, Hippocampus: 6.19%
[3]
  percent fractional release, ^3 H-Norepinephrine, Thalamus: 1.83%
[4]
  percent fractional release, ^3 H-Norepinephrine, Prefrontal Cortex: 2.32%
[5]
  percent fractional release, ^3 H-Dopamine, Olfactory Tubercles: 5.61%
[6]
  Percent change from control (ipsilateral rotations): +357
rats; 1 h, 0-60 min, read-out: Ambulation (cross overs), percent of change from control
  change in vivo at 1 mg/kg: 169%
rats; 1 h, 0-60 min, read-out: General Activity (beam breaks), percent of change from control
  change in vivo at 1 mg/kg: 27%
rats; 2 h, 60-120 min, read-out: Ambulation (cross overs), percent of change from control
  change in vivo at 1 mg/kg: 163%
rats; 2 h, 60-120 min, read-out: General Activity (beam breaks), percent of change from control
  change in vivo at 1 mg/kg: 71%
